Measurements from PMC6647725 (Analytical and Bioanalytical Chemistry, 2019).

Assays:
[1] = Stability in mouse kidney homogenate and its final extract; format: in vitro ADME; details: nominal 50 ng/mL
Experimental: (§1) After weighing the complete organ, a volume of 3 mL of this solution was added to the liver and small intestine, 2 mL to the kidneys, and 1 mL to the brain and spleen. The tissue/BSA ratio (w/v) of the homogenates were approximately 0.4:1 for the brain and liver, 0.1:1 for the spleen, 0.2:1 for the kidneys, and 0.25:1 for the small intestine. All samples were shaken in the Fast Prep at 6.0 m/s during 60 s. The stability of each analyte was investigated in all the previously mentioned matrices. For plasma (both human and mouse), the stability was determined in triplicate at two concentration levels, QC L and QC H, whereas for mouse tissue homogenates only at QC M (except the brain in one stability condition). For all matrices, the following stability conditions were assessed: short term at room temperature (RT), long term at − 20 °C, and after 3 freeze-thaw (F/T) cycles at − 20 °C/RT. Furthermore, for tissue homogenates, the short-term stability in ice-water, long-term stability at − 70 °C, and F/T stability at − 70 °C/ice-water were also evaluated. Additionally, the stability in the final extract was tested. For this, the QC L and QC H final extracts from the plasma, brain, and spleen and the QC M final extract from the liver, kidney and small intestine were stored at 4–8 °C up to 3 days. Lastly, the stability of the stock solutions at − 20 °C was investigated.

[2] = Stability in mouse plasma and its final extract (LC-MS/MS); format: in vitro ADME
Experimental: 50 μL of the sample (either from a preclinical study, calibration standard, or QC) was mixed with 25 μL of IS-working solution, followed by 150 μL of ACN for protein precipitation. Samples were vortex mixed and centrifuged at 23,100g for 10 min at 20 °C. An aliquot of 80 μL of supernatant was diluted with 120 μL of 10 mM ammonium bicarbonate in water:MeOH (1:1 v/v). The final extract was transferred to a glass vial with insert, and 10 μL was injected to the LC-MS/MS system for analysis.
The stability of each analyte was investigated in all the previously mentioned matrices. For plasma (both human and mouse), the stability was determined in triplicate at two concentration levels, QC L and QC H, whereas for mouse tissue homogenates only at QC M (except the brain in one stability condition). For all matrices, the following stability conditions were assessed: short term at room temperature (RT), long term at − 20 °C, and after 3 freeze-thaw (F/T) cycles at − 20 °C/RT. Furthermore, for tissue homogenates, the short-term stability in ice-water, long-term stability at − 70 °C, and F/T stability at − 70 °C/ice-water were also evaluated. Additionally, the stability in the final extract was tested. […] Lastly, the stability of the stock solutions at − 20 °C was investigated.

[3] = Stability in mouse small intestine homogenate and its final extract; format: in vitro ADME; details: nominal 50 ng/mL
Experimental: as §1

[4] = Stability of stock solutions at − 20 °C; format: physicochemical; details: 1 mg/mL stock solution, storage at − 20 °C
Experimental: (§2) The stability of each analyte was investigated in all the previously mentioned matrices. For plasma (both human and mouse), the stability was determined in triplicate at two concentration levels, QC L and QC H, whereas for mouse tissue homogenates only at QC M (except the brain in one stability condition). For all matrices, the following stability conditions were assessed: short term at room temperature (RT), long term at − 20 °C, and after 3 freeze-thaw (F/T) cycles at − 20 °C/RT. Furthermore, for tissue homogenates, the short-term stability in ice-water, long-term stability at − 70 °C, and F/T stability at − 70 °C/ice-water were also evaluated. Additionally, the stability in the final extract was tested. For this, the QC L and QC H final extracts from the plasma, brain, and spleen and the QC M final extract from the liver, kidney and small intestine were stored at 4–8 °C up to 3 days. Lastly, the stability of the stock solutions at − 20 °C was investigated.

[5] = Stability in mouse liver homogenate and its final extract; format: in vitro ADME; details: nominal 50 ng/mL
Experimental: as §1

[6] = Plasma pharmacokinetics in mice after oral administration; format: in vivo, mouse (FVB)
Experimental: This method was developed to support pharmacokinetic and tissue distribution studies of the CDK4/6 inhibitors in mice (FVB background). These studies were done separately for each drug. Animal housing and studies were conducted according to institutional guidelines complying with Dutch and European Union legislation (approval number from The Dutch Central Animal Testing Committee: AVD301002016595). […] Approximately 50 μL of blood was collected from the tip of the tail at several time points, except at the last one, when 500–1000 μL of blood was collected by cardiac puncture under isoflurane anesthesia. […] Mice were sacrificed by cervical dislocation and the organs were collected and weighed. Plasma was obtained using sodium heparin as anticoagulant after centrifugation at 9000g, 4 °C, for 6 min. When necessary, 10 μL of mouse plasma was diluted with 40 μL of human plasma. The tissue homogenates were prepared according to the procedure described in the “Tissue homogenate preparation” section. Plasma and tissue homogenate samples were stored at − 20 and − 70 °C, respectively, until the LC-MS/MS analysis was performed.

[7] = Stability in tissue homogenates; format: in vitro ADME, mouse; details: for stability in tissue homogenates (in words): all tissue homogenates and conditions of Table 6
Experimental: as §2

[8] = final extract (listed under kidney homogenate), 4–8 °C, 2 d
[9] = kidney homogenate, 3 F/T (RT, − 20 °C)
[10] = kidney homogenate, 3 F/T (− 70 °C, ice/water bath)
[11] = kidney homogenate, LT − 20 °C, 1 m
[12] = kidney homogenate, LT − 70 °C, 1 m
[13] = kidney homogenate, ice/water bath, 3 h
[14] = final extract (listed under mouse plasma), 4–8 °C, 4 d, nominal 5 ng/mL
[15] = final extract (listed under mouse plasma), 4–8 °C, 4 d, nominal 150 ng/mL
[16] = mouse plasma, 3 F/T (− 20 °C/RT), nominal 5 ng/mL
[17] = mouse plasma, 3 F/T (− 20 °C/RT), nominal 150 ng/mL
[18] = mouse plasma, RT, 3 d, nominal 150 ng/mL
[19] = mouse plasma, − 20 °C, 3 m, nominal 5 ng/mL
[20] = mouse plasma, − 20 °C, 3 m, nominal 150 ng/mL
[21] = final extract (listed under small intestine homogenate), 4–8 °C, 2 d
[22] = small intestine homogenate, 3 F/T (RT, − 20 °C)
[23] = small intestine homogenate, 3 F/T (− 70 °C, ice/water bath)
[24] = small intestine homogenate, LT − 20 °C, 1 m
[25] = small intestine homogenate, LT − 70 °C, 1 m
[26] = small intestine homogenate, RT, 3 h
[27] = small intestine homogenate, RT, 1 d
[28] = small intestine homogenate, ice/water bath, 3 h
[29] = final extract (listed under liver homogenate), 4–8 °C, 2 d
[30] = liver homogenate, 3 F/T (RT, − 20 °C)
[31] = liver homogenate, 3 F/T (− 70 °C, ice/water bath)
[32] = liver homogenate, LT − 20 °C, 1 m
[33] = liver homogenate, LT − 70 °C, 1 m
[34] = liver homogenate, ice/water bath, 3 h

Structure (SMILES): CCN1CCN(Cc2ccc(Nc3ncc(F)c(-c4cc(F)c5nc(C)n(C(C)C)c5c4)n3)nc2)CC1 [Abemaciclib]
- Mean concentration [1, 8]: 48.8 ng/mL
- Mean concentration [1, 9]: 49.5 ng/mL
- Accuracy (% Bias) [1, 10]: 3.6%
- Mean concentration [1, 10]: 51.8 ng/mL
- Mean concentration [1, 11]: 49.0 ng/mL
- Accuracy (% Bias) [1, 12]: 5.5%
- Mean concentration [1, 12]: 52.7 ng/mL
- Accuracy (% Bias) ([1]; kidney homogenate, RT, 3 h): 1.7%
- Mean concentration ([1]; kidney homogenate, RT, 3 h): 50.9 ng/mL
- Mean concentration ([1]; kidney homogenate, RT, 1 d): 43.3 ng/mL
- Mean concentration [1, 13]: 49.3 ng/mL
- Accuracy (% Bias) [2, 14]: 8.1%
- Mean concentration [2, 14]: 5.4 ng/mL
- Accuracy (% Bias) [2, 15]: 5.1%
- Mean concentration [2, 15]: 157.7 ng/mL
- Accuracy (% Bias) [2, 16]: 4.3%
- Mean concentration [2, 16]: 5.2 ng/mL
- Accuracy (% Bias) [2, 17]: 7.6%
- Mean concentration [2, 17]: 161.3 ng/mL
- Mean concentration ([2]; mouse plasma, RT, 3 d, nominal 5 ng/mL): 4.8 ng/mL
- Accuracy (% Bias) [2, 18]: 6.2%
- Mean concentration [2, 18]: 159.3 ng/mL
- Accuracy (% Bias) [2, 19]: 1.0%
- Mean concentration [2, 19]: 5.1 ng/mL
- Accuracy (% Bias) [2, 20]: 21.8%
- Mean concentration [2, 20]: 182.7 ng/mL
- Accuracy (% Bias) [3, 21]: 4.7%
- Mean concentration [3, 21]: 52.4 ng/mL
- Mean concentration [3, 22]: 49.0 ng/mL
- Accuracy (% Bias) [3, 23]: 1.5%
- Mean concentration [3, 23]: 50.7 ng/mL
- Mean concentration [3, 24]: 48.2 ng/mL
- Mean concentration [3, 25]: 48.3 ng/mL
- Accuracy (% Bias) [3, 26]: 12.3%
- Mean concentration [3, 26]: 56.4 ng/mL
- Mean concentration [3, 27]: 46.4 ng/mL
- Accuracy (% Bias) [3, 28]: 3.1%
- Mean concentration [3, 28]: 51.6 ng/mL
- stability of stock solutions (time stable) [4]: at least 12 months
- Mean concentration [5, 29]: 47.9 ng/mL
- Accuracy (% Bias) [5, 30]: 5.0%
- Mean concentration [5, 30]: 52.5 ng/mL
- Accuracy (% Bias) [5, 31]: 0.1%
- Mean concentration [5, 31]: 50.0 ng/mL
- Accuracy (% Bias) [5, 32]: 1.4%
- Mean concentration [5, 32]: 50.7 ng/mL
- Accuracy (% Bias) [5, 33]: 1.2%
- Mean concentration [5, 33]: 50.6 ng/mL
- Mean concentration ([5]; liver homogenate, RT, 1 d): 47.9 ng/mL
- Accuracy (% Bias) [5, 34]: 3.8%
- Mean concentration [5, 34]: 51.9 ng/mL
- concentration at 24 h ([6]; FVB, po, mouse plasma, 10 mg/kg orally administered, t = 24 h, read-out: plasma concentration of representative sample): 74.3 ng/mL
- stability in tissue homogenates (in words) [7]: stable in all matrices at all conditions

Structure (SMILES): CN(C)C(=O)c1cc2cnc(Nc3ccc(N4CCNCC4)cn3)nc2n1C1CCCC1 [Ribociclib]
- Mean concentration [1, 8]: 43.2 ng/mL
- Mean concentration [1, 9]: 15.7 ng/mL
- Mean concentration [1, 10]: 49.1 ng/mL
- Mean concentration [1, 11]: 31.5 ng/mL
- Accuracy (% Bias) [1, 12]: 0.5%
- Mean concentration [1, 12]: 50.2 ng/mL
- Mean concentration ([1]; kidney homogenate, RT, 3 h): 43.4 ng/mL
- Mean concentration ([1]; kidney homogenate, RT, 1 d): 0.91 ng/mL
- Mean concentration [1, 13]: 42.7 ng/mL
- Accuracy (% Bias) [2, 20]: 4.7%
- Mean concentration [3, 21]: 44.2 ng/mL
- Mean concentration [3, 22]: 45.6 ng/mL
- Accuracy (% Bias) [3, 23]: 0.1%
- Mean concentration [3, 23]: 50.0 ng/mL
- Mean concentration [3, 24]: 38.9 ng/mL
- Mean concentration [3, 25]: 48.9 ng/mL
- Accuracy (% Bias) [3, 26]: 1.3%
- Mean concentration [3, 26]: 50.6 ng/mL
- Mean concentration [3, 27]: 41.9 ng/mL
- Mean concentration [3, 28]: 48.4 ng/mL
- stability of stock solutions (time stable) [4]: at least 12 months
- Mean concentration [5, 29]: 42.6 ng/mL
- Mean concentration [5, 30]: 47.7 ng/mL
- Accuracy (% Bias) [5, 31]: 0.1%
- Mean concentration [5, 31]: 50.0 ng/mL
- Mean concentration [5, 32]: 32.4 ng/mL
- Mean concentration [5, 33]: 49.1 ng/mL
- Mean concentration ([5]; liver homogenate, RT, 1 d): 41.9 ng/mL
- Mean concentration [5, 34]: 45.4 ng/mL
- concentration at 8 h ([6]; female, FVB, po, mouse plasma, 20 mg/kg orally administered, t = 8 h, read-out: plasma concentration of representative sample): 625 ng/mL
- Cmax ([6]; mouse, female FVB mice, 20 mg/kg oral, plasma, n = 6): 1040 ± 352 ng/mL
- AUC(0-t) ([6]; mouse, female FVB mice, 20 mg/kg oral, plasma, n = 6, read-out: AUC0–24h): 6880 ± 1220 ng·h/mL
- Tmax ([6]; mouse, female FVB mice, 20 mg/kg oral, plasma, n = 6, read-out: Tmax range): 30 to 60 min
- stability in tissue homogenates (in words) [7]: showed instability in tissue homogenates
- time stable in kidney and spleen homogenates ([7]; room temperature and ice/water bath): at least 3 h
